According to patent US6476025B1, “Phenylphennanthridines with PDE-IV inhibiting activity” (Altana Pharma AG, priority 1999, dated 2002):

What was measured:
[1] = test system: PDE4; assay: Inhibition of PDE4 activity (method of Bauer and Schwabe, adapted to microtiter plates); assay type: biochemical; details: inhibitory concentration as −log IC50 (mol/l)
Protocol: The activity test was carried out according to the method of Bauer and Schwabe, which was adapted to microtiter plates (Naunyn-Schmiedeberg's Arch. Pharmacol. 1980, 311, 193-198). The PDE reaction takes place in the first step here. In a second step, the resulting 5′-nucleotide is cleaved by a 5′-nucleotidase of the snake venom of Crotalus atrox to the uncharged nucleoside. In the third step, the nucleoside is separated from the remaining charged substrate on ion-exchange columns. The columns are eluted directly into minivials, into which 2 ml of scintillator fluid are additionally added, for counting using 2 ml of 30 mM ammonium formate (pH 6.0).
The inhibitory values determined for the compounds according to the invention [inhibitory concentration as −log Ic50 (mol/l)] follow from the following Table A, in which the numbers of the compounds correspond to the numbers of the examples.

| SMILES | melting point | −log IC50, inhibition of the PDE4 activity [1] |
| --- | --- | --- |
| CCOc1cc2c(cc1OC)C(c1ccc(CCl)cc1)=N[C@H]1CCCC[C@@H]21 (relative stereo) [Compound 19, cis-6-(4-Chloromethylphenyl)-9-ethoxy-8-methoxy-1,2,3,4,4a,10b-hexahydrophenanthridine] | 151 to 153 °C | 8.59 |
| COc1cc2c(cc1OC)C1CCCCC1N=C2c1cccc(C(=O)N2CCCCC2)c1 (single isomer, unassigned; (-)) [Compound 17, (−)-cis-8,9-Dimethoxy-[3-(piperidin-1-ylcarbonyl)phenyl]-1,2,3,4,4a,10b-hexahydrophenanthridine] | 182 to 185 °C | 8.13 |
| CCOc1cc2c(cc1OC)C(c1ccc(OCC)c(OCC3CC3)c1)=NC1CCCCC21 (single isomer, unassigned; (-)) [Compound 39, (−)-cis-9-Ethoxy-8-methoxy-6-[(3-cyclopropylmethoxy-4-ethoxy)phenyl]-1,2,3,4,4a,10b-hexahydrophenanthridine] | 102 to 105 °C | 8.87 |
| COc1cc2c(cc1OC)C1CCCCC1N=C2c1ccc(OC)c(N2C(=O)CCC2=O)c1 (single isomer, unassigned; (-)) [Compound 48, (−)-cis-8,9-Dimethoxy-6-{[3-(2,5-dioxopyrrolidin-1-yl)-4-methoxy]phenyl}-1,2,3,4,4a,10b-hexahydrophenanthridine] | 168 to 177 °C | 7.67 |
| COc1cc2c(cc1OC)[C@@H]1CCCC[C@@H]1N=C2c1ccc(Oc2ccccc2)cc1 [Compound 4, (−)-cis-8,9-Dimethoxy-6-(4-phenoxyphenyl)-1,2,3,4,4a,10b-hexahydrophenanthridine] | 110 to 115 °C | 7.52 |
| COc1cc2c(cc1OC)[C@@H]1CCCC[C@@H]1N=C2c1cccc(OCc2ccccc2)c1 [Compound 7, (−)-cis-8,9-Dimethoxy-6-(3-benzyloxyphenyl)-1,2,3,4,4a,10b-hexahydrophenanthridine] | 118 to 120 °C | 8.40 |
| COC(=O)Cc1ccc(C2=N[C@H]3CCCC[C@H]3c3cc(OC)c(OC)cc32)cc1 [Compound 18, (−)-cis-8,9-Dimethoxy-6-(4-methoxycarbonylmethylphenyl)-1,2,3,4,4a,10b-hexahydrophenanthridine] | 124 to 125 °C | 7.49 |
| COc1cc2c(cc1OC)[C@@H]1CCCC[C@@H]1N=C2c1ccc(C(=O)CC(C)C)cc1 [Compound 23, (−)-cis-8,9-Dimethoxy-6-[4-(3-methylbutyryl)phenyl]-1,2,3,4,4a,10b-hexahydrophenanthridine] | 114 to 117 °C | 7.5 |
| COc1cc2c(cc1OC)[C@@H]1CCCC[C@@H]1N=C2c1ccc(C(=O)CC2CC2)cc1 [Compound 24, (−)-cis-8,9-Dimethoxy-6-[4-cyclopropylmethylcarbonylphenyl]-1,2,3,4,4a,10b-hexahydrophenanthridine] | 93 to 98 °C | 7.48 |
| COc1cccc(C(=O)c2ccc(C3=N[C@H]4CCCC[C@H]4c4cc(OC)c(OC)cc43)cc2)c1 [Compound 30, (−)-cis-8,9-Dimethoxy-6-[4-(3-methoxybenzoyl)phenyl]-1,2,3,4,4a,10b-hexahydrophenanthridine] | 146 to 148 °C | 7.94 |
| COc1cc2c(cc1OC)[C@@H]1CCCC[C@@H]1N=C2c1cccc(OCC2CC2)c1 [Compound 35, (−)-cis-8,9-Dimethoxy-6-(3-cyclopropylmethoxyphenyl)-1,2,3,4,4a,10b-hexahydrophenanthridine] | 54 to 61 °C | 7.43 |
| CCOc1ccc(C2=N[C@H]3CCCC[C@H]3c3cc(OC)c(OC)cc32)cc1OCC1CC1 [Compound 38, (−)-cis-8,9-Dimethoxy-6-(3-cyclopropylmethoxy-4-ethoxyphenyl)-1,2,3,4,4a,10b-hexahydrophenanthridine] | – | 7.47 |
| COc1cc2c(cc1OC)[C@@H]1CCCC[C@@H]1N=C2c1cc(OCC2CC2)cc(OCC2CC2)c1 [Compound 41, (−)-cis8,9-Dimethoxy-6-[3,5-bis(cyclopropylmethoxy)phenyl]-1,2,3,4,4a,10b-hexahydrophenanthridine] | – | 8.03 |
| COc1cc2c(cc1OC)[C@@H]1CCCC[C@@H]1N=C2c1ccc(OC(F)F)c(OCC2CC2)c1 [Compound 42, (−)-cis-8,9-Dimethoxy-6-(3-cyclopropylmethoxy-4-difluoromethoxyphenyl)-1,2,3,4,4a,10b-hexahydrophenanthridine] | – | 7.43 |
| COc1cc2c(cc1OC)[C@@H]1CCCC[C@@H]1N=C2c1ccc(OC)c(N2CCCC2=O)c1 [Compound 47, (−)-cis-8,9-Dimethoxy-6-[4-methoxy-3-(2-oxopyrrolidin-1-yl)phenyl]-1,2,3,4,4a,10b-hexahydrophenanthridine] | 147 to 152 °C | 7.33 |
| COc1cc2c(cc1OC)[C@@H]1CCCC[C@@H]1N=C2c1cccc(C(C)=O)c1 [Compound 49, (−)cis-8,9-Dimethoxy-6-(3-acetylphenyl)-1,2,3,4,4a,10b-hexahydrophenanthridine] | 112.5 to 114 °C | 7.17 |
| CCC(=O)c1ccc(C2=N[C@H]3CCCC[C@H]3c3cc(OC)c(OC)cc32)cc1 [Compound 50, (−)-cis-8,9-Dimethoxy-6-[4-propionylphenyl]-1,2,3,4,4a,10b-hexahydrophenanthridine] | – | 7.98 |
